Structures are written as SMILES.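 All cell lines were grown in 96-well plates and treated with compound for 48 hours. TGI: total growth inhibition.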 A value given as a limit tells only on which side of the number the result lay.

This note sets out measurements from PubChem BioAssay (NCI).

Test in all cases: NCI anticancer screen, dose series, 48 h
Test [1] deals with A498 renal.
Test [2] deals with HCC-2998 colon.
Test [3] concerns HL-60(TB) leukemia.
Test [4] relates to LOX IMVI melanoma.
The test system of test [5] is M14 melanoma.
Test [6] concerns MCF7 breast.
Test [7] deals with MDA-MB-231 breast.
Test [8] has as its system NCI-H226 lung.
For test [9], the system named is NCI-H23 lung.
For test [10], the system named is PC-3 prostate.
In test [11] the test system is SF-539 CNS.
The subject of test [12] is SK-MEL-2 melanoma.
The test system of test [13] is SK-MEL-28 melanoma.
Test [14] concerns SN12C renal.
The subject of test [15] is SNB-75 CNS.
For test [16], the system named is SR leukemia.
Test [17] deals with U251 CNS.
The test system of test [18] is UACC-62 melanoma.
Test [19] has as its system HT29 colon.
Test [20] has as its system T-47D breast.

Consider `CC(C)(C)OC(=O)C1CC[C@@H](CC(=O)Oc2ccc([N+](=O)[O-])cc2)N1` (some centres not stated), for which the TGI in test [1], in [2], in test [3], in test [4], in test [5] and in [6] was above 100 µM throughout. Further, the TGI in test [7], in [8], in test [9], in test [10], in test [11] and in [12] was above 100 µM each time. For the same compound, the TGI in test [13], in test [14], in [15], in test [16], in [17] and in [18] was above 100 µM each time.
As to `CCOP(=O)(OCC)[C@H]1OC(C)(C)O[C@@H]1CO`, the TGI in test [1], in test [2], in test [3], in test [19], in test [4] and in test [5] was above 100 µM each time. Further, the TGI in [6], in [7], in test [9], in test [10], in test [11] and in [12] was above 100 µM throughout. Further, the TGI in test [13], in [14], in [20], in test [17] and in test [18] was above 100 µM each time.
`CN1CC[C@]2(c3cccc(O)c3)CC(=O)/C(=C/c3ccc(Cl)c(Cl)c3)[C@@H]1C2`: the TGI in test [1] came to 3.69 µM; in test [2], 2.77 µM; in test [3] it was 0.464 µM; in test [19], 2.22 µM; in test [4] it was 0.327 µM; in test [5], 3.08 µM. Moreover, the TGI was 9.41 µM in test [6]; 2.4 µM in test [7]; 4.7 µM in [8]; 4.33 µM in test [9]; 1.42 µM in test [10]; 4.52 µM in test [11]. The TGI in test [13] worked out at 3.28 µM; in [14], 2.29 µM; in test [15] it was 1.55 µM; in test [16], 10.3 µM; in [17], 2.14 µM.
Consider `C[C@]12CC[C@H](O)CC1=CC[C@@H]1[C@@H]2CC[C@]2(C)C(=N/O)/C(=C/c3ccc([N+](=O)[O-])cc3)C[C@@H]12`, for which the TGI in test [1] came out at 11.7 µM; in test [2] it was 23 µM; in test [3], 25 µM; in [19] it was 23.5 µM; in test [4], 21.5 µM; in test [5] it was 21.1 µM. The TGI in [6] was 18.2 µM; in test [8] it was 6.59 µM; in [9], 25.6 µM; in [10], 14.3 µM; in test [11], 19.3 µM; in test [12] it was 15.5 µM. In addition, the TGI in test [13] is 22.8 µM; in test [14] it was 7.14 µM; in test [15], 18 µM; in [16], 22.5 µM; in test [20], 30.5 µM; in test [18], 28.6 µM.
On to `COc1cccc(Cc2cc(=O)c3ccc(C)nc3[nH]2)c1`, for which the TGI in test [1], in test [3], in test [19], in test [4], in test [5] and in test [6] was above 100 µM each time. The TGI in [7], in [8], in test [9], in test [12], in test [13] and in test [14] was above 100 µM in each case. Also, the TGI in test [15], in test [16], in test [20], in [17] and in test [18] was above 100 µM in each case.
Take `O=c1[nH]c(-n2[nH]c3c(c2=O)CCCC3)nc(O)c1-c1ccccc1`: the TGI in test [1], in test [3], in test [19], in test [5], in [7] and in test [8] was above 100 µM each time. The TGI in test [9], in test [10], in test [12], in test [13], in [14] and in test [16] was above 100 µM throughout. The TGI in test [20], in test [17] and in test [18] was above 100 µM throughout.
For `Cc1ccc(/C=C2\Cc3cccc(C)c3C2=O)c(C(=O)O)c1`, the TGI in [1], in test [2], in [3], in [19], in test [4] and in [5] was above 100 µM in each case. Further, the TGI in [7], in [8], in test [9], in test [10], in test [11] and in test [13] was above 100 µM throughout. Moreover, the TGI in test [14], in [15], in [16], in [20] and in test [17] was above 100 µM in each case.
For the compound `Cc1ccc(C)c2c1CC(Cc1ccccc1C(=O)O)C2=O` (configuration not stated), the TGI in test [2], in test [3], in test [19], in [4], in [5] and in test [6] was above 100 µM in each case. The TGI in test [7], in test [8], in test [9], in test [10], in [11] and in [12] was above 100 µM in each case. In addition, the TGI in test [13], in test [14], in [15], in [20], in test [17] and in [18] was above 100 µM in each case.
